“And” between values parts separate entries of the source, which are not always exact repeats. Identical values can stand only once. Numbers after ± are expanded uncertainties.
Details: Liquid, Transpiration method

O=Cc1ccco1 [2-furaldehyde]
Details | vapor or sublimation pressure [kPa]
276.7 K | 0.0525 ± 0.003
281.5 K | 0.0746 ± 0.0041
285.4 K | 0.1011 ± 0.0056
288.4 K | 0.1293 ± 0.0072
290.6 K | 0.1516 ± 0.0084
293.2 K | 0.182 ± 0.01
295.5 K | 0.2088 ± 0.012
298.2 K | 0.2589 ± 0.014
300.5 K | 0.3002 ± 0.017
303.1 K | 0.3652 ± 0.02
308.2 K | 0.4911 ± 0.027
312.2 K | 0.6213 ± 0.034
315.1 K | 0.7411 ± 0.041
317.9 K | 0.9108 ± 0.05
320.1 K | 1.04 ± 0.057
323.4 K | 1.256 ± 0.068

OCCc1ccccc1 [2-phenylethanol]
Details | vapor or sublimation pressure
287.8 K | 0.00251 ± 0.00014 kPa
289.7 K | 0.00285 ± 0.00016 kPa
292.7 K | 0.00399 ± 0.00023 kPa
295.1 K | 0.00482 ± 0.00027 kPa
297.5 K | 0.00626 ± 0.00036 kPa
302.5 K | 0.00976 ± 0.00055 kPa
308.2 K | 0.0153 ± 0.00086 kPa
312.5 K | 0.02276 ± 0.0013 kPa
316.6 K | 0.03091 ± 0.0017 kPa
317.6 K | 0.03285 ± 0.0018 kPa
322.7 K | 0.05022 ± 0.0028 kPa and 0.05028 ± 0.0028 kPa
322.8 K | 0.05055 ± 0.0028 kPa
327.8 K | 0.06913 ± 0.0038 kPa
332.8 K | 0.09839 ± 0.0054 kPa
337.9 K | 0.1395 ± 0.0078 kPa
342.9 K | 0.2097 ± 0.012 kPa
348.1 K | 0.2794 ± 0.015 kPa
353.2 K | 0.3777 ± 0.021 kPa
358.3 K | 0.5243 ± 0.029 kPa
363.3 K | 0.6922 ± 0.038 kPa

O=Cc1ccccc1 [benzaldehyde]
Details | vapor or sublimation pressure [kPa]
278.4 K | 0.04083 ± 0.0023
282.3 K | 0.05524 ± 0.0031
286.3 K | 0.07697 ± 0.0042
290.3 K | 0.09697 ± 0.0054
294.3 K | 0.1372 ± 0.0076
298.4 K | 0.1775 ± 0.0098
303.2 K | 0.246 ± 0.013
308.2 K | 0.3195 ± 0.017
313.2 K | 0.4306 ± 0.023

O=CCc1ccccc1 [α-tolualdehyde]
Details | vapor or sublimation pressure [kPa]
293.2 K | 0.01683 ± 0.00095
298.1 K | 0.02456 ± 0.0014
303.1 K | 0.03724 ± 0.0021
308.2 K | 0.05436 ± 0.003
313.7 K | 0.0801 ± 0.0044
317.9 K | 0.111 ± 0.0061
323 K | 0.15 ± 0.0083
328.1 K | 0.2162 ± 0.012
332.1 K | 0.2883 ± 0.016
338 K | 0.4029 ± 0.022
343 K | 0.5498 ± 0.03
